Reference: patent US9901584B2, “Methods of cosmetically treating skin conditions with a cosmetic personal cleansing composition” (The Procter & Gamble Company, priority 2015, dated 2018)

Test system: Unhealthy Skin Signature
Conditions: normal human keratinocytes, various doses of zinc pyrithione, 6-24 hours

With zinc pyrithione the “Linkage to Unhealthy Skin Signature gene expression pattern” value was “negative linkage”.
